Results as given in patent US9890142B2, “PDE4 inhibitor” (Meiji Seika Pharma Co., Ltd., priority 2013, dated 2018).

What follows are compounds tested on PDE4 (assay: Evaluation of PDE4 inhibition (scintillation proximity assay)). Settings: inhibition rate relative to control, test compound at 1 μM.
Type: biochemical
Experimental: Test Example 1 Evaluation of PDE4 Inhibition
The PDE4 inhibitory activity was measured by using scintillation proximity assay (SPA) as follows: one in which a sample compound dissolved in dimethyl sulfoxide was diluted 10-fold with a buffer solution for reaction containing 50 mM Tris-HCl, pH 7.5, 8.3 mM MgCl2, 1.7 mM EDTA and 0.3 mg/mL bovine serum albumin (BSA) was added at 10 μL/well to a 96-well assay plate. Further, PDE4 diluted 750-fold with a buffer solution for reaction was added at 50 μL/well, then [2,8-^3H]-Adenosine-3′,5′-cyclic phosphate triethylammonium salt diluted 1000-fold with a buffer solution for reaction was added at 40 μL/well, and the plate was left standing at room temperature for 120 minutes. Thereafter, a suspension of RNA binding YSi-SPA Beads containing 200 mM ZnSO4 was added at 50 μL/well, and the plate was left standing at room temperature for 15 minutes to adsorb the enzyme reaction product onto the Beads. Thereafter, the radioactivity was measured with a liquid scintillation counter for 96-well plates. When one supplemented with only a buffer solution for reaction without adding the enzyme preparation was used as a blank and one supplemented with the enzyme preparation but supplemented with only dimethyl sulfoxide instead of the sample solution was used as a control, the inhibition rate of the test compound relative to the control was calculated according to the following calculation expression: Inhibition rate (%)={1−(Numeric value from the addition of each sample−Blank value)/(Control value−Blank value)}×100
With `Cc1cnn(-c2cc(Cl)cc3nc(N4CCNC[C@@H]4C)oc23)c1` [Example 40, (S)-5-Chloro-7-(4-methyl-1H-pyrazol-1-yl)-2-(2-methylpiperazin-1-yl)benzoxazole] the “PDE4 inhibitory activity (1 μM (%))” value was 68%. In the case of `C[C@H]1CNCCN1c1nc2cc(Cl)cc(-c3ccccn3)c2o1` [Example 41, (S)-5-Chloro-2-(2-methylpiperazin-1-yl)-7-(pyridin-2-yl)benzoxazole], the “PDE4 inhibitory activity (1 μM (%))” value is reported as 93%. For `C[C@H]1CNCCN1c1nc2cc(Cl)cc(-c3cccnc3)c2o1` [Example 42, (S)-5-Chloro-2-(2-methylpiperazin-1-yl)-7-(pyridin-3-yl)benzoxazole], the “PDE4 inhibitory activity (1 μM (%))” value was 66%. For `C[C@H]1CNCCN1c1nc2cc(Cl)cc(-c3ccncc3)c2o1` [Example 43, (S)-5-Chloro-2-(2-methylpiperazin-1-yl)-7-(pyridin-4-yl)benzoxazole], the “PDE4 inhibitory activity (1 μM (%))” value was 61%. With `C[C@H]1CNCCN1c1nc2cc(Cl)cc(C3CCCCC3)c2o1` [Example 44, (S)-5-Chloro-7-cyclohexyl-2-(2-methylpiperazin-1-yl)benzoxazole] the “PDE4 inhibitory activity (1 μM (%))” value was 64%. In the case of `C[C@H]1CNCCN1c1nc2cc(Cl)cc(-n3nccn3)c2o1` [Example 45, (S)-5-Chloro-2-(2-methylpiperazin-1-yl)-7-(2H-1,2,3-triazol-2-yl)benzoxazole], the “PDE4 inhibitory activity (1 μM (%))” value is reported as 87%. In the case of `C[C@H]1CNCCN1c1nc2cc(Cl)cc(-n3cncn3)c2o1` [Example 46, (S)-5-Chloro-2-(2-methylpiperazin-1-yl)-7-(1H-1,2,4-triazol-1-yl)benzoxazole], the “PDE4 inhibitory activity (1 μM (%))” value is reported as 29%. In the case of `CC(C)Cc1cc(Cl)cc2nc(N3CCNC[C@@H]3C)oc12` [Example 47, (S)-5-Chloro-7-isobutyl-2-(2-methylpiperazin-1-yl)benzoxazole], the “PDE4 inhibitory activity (1 μM (%))” value is reported as 35%. In the case of `C[C@H]1CNCCN1c1nc2cc(Cl)cc(-c3ccccc3CO)c2o1` [Example 48, (S)-5-Chloro-2-(2-methylpiperazin-1-yl)-7-(2-hydroxymethylphenyl)benzoxazole], the “PDE4 inhibitory activity (1 μM (%))” value is reported as 53%. `C[C@H]1CNCCN1c1nc2cc(Cl)cc(-c3nccn3C)c2o1` [Example 49, (S)-5-Chloro-7-(1-methyl-1H-imidazol-2-yl)-2-(2-methylpiperazin-1-yl)-benzoxazole] was tested, and the “PDE4 inhibitory activity (1 μM (%))” value was 17%. `C[C@H]1CNCCN1c1nc2cc(Cl)cc(-c3ncc[nH]3)c2o1` [Example 50, (S)-5-Chloro-7-(1H-imidazol-2-yl)-2-(2-methylpiperazin-1-yl)benzoxazole] was tested, and the “PDE4 inhibitory activity (1 μM (%))” value was 62%. For `C[C@H]1CNCCN1c1nc2cc(Cl)cc(CC3CCCCC3)c2o1` [Example 51, (S)-5-Chloro-7-(cyclohexylmethyl)-2-(2-methylpiperazin-1-yl)-benzoxazole], the “PDE4 inhibitory activity (1 μM (%))” value was 12%. For `C[C@H]1CNCCN1c1nc2cc(Cl)cc(OC3CCCCC3)c2o1` [Example 52, (S)-5-Chloro-7-(cyclohexyloxy)-2-(2-methylpiperazin-1-yl)benzoxazole], the “PDE4 inhibitory activity (1 μM (%))” value was 57%. With `C[C@H]1CNCCN1c1nc2cc(Cl)cc(OCC3CC3)c2o1` [Example 53, (S)-5-Chloro-7-(cyclopropylmethoxy)-2-(2-methylpiperazin-1-yl)benzoxazole] the “PDE4 inhibitory activity (1 μM (%))” value was 50%. In the case of `C[C@H]1CNCCN1c1nc2cc(Cl)cc(-c3ccsn3)c2o1` [Example 54, (S)-5-Chloro-7-(isothiazole-3-yl)-2-(2-methylpiperazin-1-yl)benzoxazole], the “PDE4 inhibitory activity (1 μM (%))” value is reported as 92%. In the case of `C[C@H]1CNCCN1c1nc2cc(Cl)cc(-c3ncc(CO)s3)c2o1` [Example 55, (S)-5-Chloro-7-(5-hydroxymethylthiazol-2-yl)-2-(2-methylpiperazin-1-yl)benzoxazole], the “PDE4 inhibitory activity (1 μM (%))” value is reported as 80%. For `C[C@H]1CNCCN1c1nc2cc(Cl)cc(-c3ncccn3)c2o1` [Example 56, (S)-5-Chloro-2-(2-methylpiperazin-1-yl)-7-(pyrimidin-2-yl)benzoxazole], the “PDE4 inhibitory activity (1 μM (%))” value was 87%. In the case of `C[C@H]1CNCCN1c1nc2cc(Cl)cc(-c3ccc(Cl)s3)c2o1` [Example 57, (S)-5-Chloro-7-(5-chlorothiophen-2-yl)-2-(2-methylpiperazin-1-yl)benzoxazole], the “PDE4 inhibitory activity (1 μM (%))” value is reported as 54%. `C[C@H]1CNCCN1c1nc2cc(Cl)cc(-c3ccc(Cl)cn3)c2o1` [Example 58, (S)-5-Chloro-7-(5-chloropyridin-2-yl)-2-(2-methylpiperazin-1-yl)benzoxazole] was tested, and the “PDE4 inhibitory activity (1 μM (%))” value was 77%. In the case of `C[C@H]1CNCCN1c1nc2cc(Cl)cc(-c3cc(Cl)ccn3)c2o1` [Example 59, (S)-5-Chloro-7-(4-chloropyridin-2-yl)-2-(2-methylpiperazin-1-yl)benzoxazole], the “PDE4 inhibitory activity (1 μM (%))” value is reported as 71%. For `C[C@H]1CNCCN1c1nc2cc(Cl)cc(-c3cccc(F)n3)c2o1` [Example 60, (S)-5-Chloro-7-(6-fluoropyridin-2-yl)-2-(2-methylpiperazin-1-yl)benzoxazole], the “PDE4 inhibitory activity (1 μM (%))” value was 63%. For `C[C@H]1CNCCN1c1nc2cc(Cl)cc(-c3ncccc3F)c2o1` [Example 61, (S)-5-Chloro-7-(3-fluoropyridin-2-yl)-2-(2-methylpiperazin-1-yl)benzoxazole], the “PDE4 inhibitory activity (1 μM (%))” value was 81%. For `C[C@H]1CNCCN1c1nc2cc(Cl)cc(-c3ncc(C#N)s3)c2o1` [Example 62, (S)-5-Chloro-7-(5-cyanothiazol-2-yl)-2-(2-methylpiperazin-1-yl)benzoxazole], the “PDE4 inhibitory activity (1 μM (%))” value was 65%. In the case of `Cc1cnc(-c2cc(Cl)cc3nc(N4CCNC[C@@H]4C)oc23)s1` [Example 63, (S)-5-Chloro-2-(2-methylpiperazin-1-yl)-7-(5-methylthiazol-2-yl)benzoxazole], the “PDE4 inhibitory activity (1 μM (%))” value is reported as 87%. In the case of `C[C@H]1CNCCN1c1nc2cc(Cl)cc(-c3ccsc3Cl)c2o1` [Example 64, (S)-5-Chloro-7-(2-chlorothiophen-3-yl)-2-(2-methylpiperazin-1-yl)benzoxazole], the “PDE4 inhibitory activity (1 μM (%))” value is reported as 73%. `C[C@H]1CNCCN1c1nc2cc(Cl)cc(-c3ncc(C(N)=O)s3)c2o1` [Example 65, (S)-5-Chloro-7-(5-carbamoylthiazol-2-yl)-2-(2-methylpiperazin-1-yl)benzoxazole] was tested, and the “PDE4 inhibitory activity (1 μM (%))” value was 83%. In the case of `C[C@H]1CNCCN1c1nc2cc(Cl)cc(-c3ncccc3C#N)c2o1` [Example 66, (S)-5-Chloro-7-(3-cyanopyridin-2-yl)-2-(2-methylpiperazin-1-yl)benzoxazole], the “PDE4 inhibitory activity (1 μM (%))” value is reported as 57%. For `C[C@H]1CNCCN1c1nc2cc(Cl)cc(-c3ccc(F)s3)c2o1` [Example 67, (S)-5-Chloro-7-(5-fluorothiophen-2-yl)-2-(2-methylpiperazin-1-yl)benzoxazole], the “PDE4 inhibitory activity (1 μM (%))” value was 70%. `Cc1cccnc1-c1cc(Cl)cc2nc(N3CCNC[C@@H]3C)oc12` [Example 68, (S)-5-Chloro-2-(2-methylpiperazin-1-yl)-7-(3-methylpyridin-2-yl)benzoxazole] was tested, and the “PDE4 inhibitory activity (1 μM (%))” value was 38%. For `Cc1nc(-c2cc(Cl)cc3nc(N4CCNC[C@@H]4C)oc23)cs1` [Example 69, (S)-5-Chloro-2-(2-methylpiperazin-1-yl)-7-(2-methylthiazol-4-yl)benzoxazole], the “PDE4 inhibitory activity (1 μM (%))” value was 65%. In the case of `C[C@H]1CNCCN1c1nc2cc(Cl)cc(Oc3ccccc3)c2o1` [Example 70, (S)-5-Chloro-2-(2-methylpiperazin-1-yl)-7-phenoxybenzoxazole], the “PDE4 inhibitory activity (1 μM (%))” value is reported as 38%. With `C[C@H]1CNCCN1c1nc2cc(Cl)cc(N3CCCC3=O)c2o1` [Example 71, (S)-5-Chloro-2-(2-methylpiperazin-1-yl)-7-(2-oxo-pyrrolidin-1-yl)benzoxazole] the “PDE4 inhibitory activity (1 μM (%))” value was 30%. `C[C@H]1CNCCN1c1nc2cc(Cl)cc(N3CCOC3=O)c2o1` [Example 72, (S)-5-Chloro-2-(2-methylpiperazin-1-yl)-7-(2-oxo-oxazolidin-3-yl)benzoxazole] was tested, and the “PDE4 inhibitory activity (1 μM (%))” value was 28%. `C[C@H]1CNCCN1c1nc2cc(Cl)cc(-c3ccc(F)cn3)c2o1` [Example 73, (S)-5-Chloro-7-(5-fluoropyridin-2-yl)-2-(2-methylpiperazin-1-yl)benzoxazole] was tested, and the “PDE4 inhibitory activity (1 μM (%))” value was 93%. `C[C@H]1CNCCN1c1nc2cc(Cl)cc(-c3ncc(Cl)s3)c2o1` [Example 74, (S)-5-Chloro-7-(5-chlorothiazol-2-yl)-2-(2-methylpiperazin-1-yl)benzoxazole] was tested, and the “PDE4 inhibitory activity (1 μM (%))” value was 83%. For `C[C@H]1CNCCN1c1nc2cc(Cl)cc(Cc3ccccc3)c2o1` [Example 75, (S)-7-Benzyl-5-chloro-2-(2-methylpiperazin-1-yl)benzoxazole], the “PDE4 inhibitory activity (1 μM (%))” value was 45%. `C[C@H]1CNCCN1c1nc2cc(Cl)cc(-c3ncsc3CO)c2o1` [Example 76, (S)-5-Chloro-7-(5-(hydroxymethyl)thiazol-4-yl)-2-(2-methylpiperazin-1-yl)benzoxazole] was tested, and the “PDE4 inhibitory activity (1 μM (%))” value was 73%.
